Target: EXON 20 Insertion (NPG) Ba/F3 Cell (Homo sapiens, UniProt P00533, INS772GNP, cells depend on it)
Assay: Measurement of inhibitory effect on cancer cell growth (MTT assay)
Conditions: read-out: Measured value of inhibitory effect on cancer cell growth (IC50), EXON 20 Insertion (NPG) Ba/F3 Cell, Ba/F3 cells expressing EGFR with NPG inserted at D770_N771, 72 hours treatment, read at 595 nm
Description: First, the present invention used a vector in which NPG of 3 amino acids were added to D770_N771 site of the most frequent alterations, and used the Ba/F3 cell line for expression of these genes.
Pre-constructed stable cells of 1×10^4 cells were placed in a 96 well plate and incubated overnight, and then the compounds of Examples were treated at a dose dependent manner After 72 hours, MTT reagent was added, and after 3 hours, stop buffer (10% SDS) was added.

EXON 20 Insertion (NPG) Ba/F3 Cell, sequence (P00533 with tags, fused parts or gaps INS772GNP): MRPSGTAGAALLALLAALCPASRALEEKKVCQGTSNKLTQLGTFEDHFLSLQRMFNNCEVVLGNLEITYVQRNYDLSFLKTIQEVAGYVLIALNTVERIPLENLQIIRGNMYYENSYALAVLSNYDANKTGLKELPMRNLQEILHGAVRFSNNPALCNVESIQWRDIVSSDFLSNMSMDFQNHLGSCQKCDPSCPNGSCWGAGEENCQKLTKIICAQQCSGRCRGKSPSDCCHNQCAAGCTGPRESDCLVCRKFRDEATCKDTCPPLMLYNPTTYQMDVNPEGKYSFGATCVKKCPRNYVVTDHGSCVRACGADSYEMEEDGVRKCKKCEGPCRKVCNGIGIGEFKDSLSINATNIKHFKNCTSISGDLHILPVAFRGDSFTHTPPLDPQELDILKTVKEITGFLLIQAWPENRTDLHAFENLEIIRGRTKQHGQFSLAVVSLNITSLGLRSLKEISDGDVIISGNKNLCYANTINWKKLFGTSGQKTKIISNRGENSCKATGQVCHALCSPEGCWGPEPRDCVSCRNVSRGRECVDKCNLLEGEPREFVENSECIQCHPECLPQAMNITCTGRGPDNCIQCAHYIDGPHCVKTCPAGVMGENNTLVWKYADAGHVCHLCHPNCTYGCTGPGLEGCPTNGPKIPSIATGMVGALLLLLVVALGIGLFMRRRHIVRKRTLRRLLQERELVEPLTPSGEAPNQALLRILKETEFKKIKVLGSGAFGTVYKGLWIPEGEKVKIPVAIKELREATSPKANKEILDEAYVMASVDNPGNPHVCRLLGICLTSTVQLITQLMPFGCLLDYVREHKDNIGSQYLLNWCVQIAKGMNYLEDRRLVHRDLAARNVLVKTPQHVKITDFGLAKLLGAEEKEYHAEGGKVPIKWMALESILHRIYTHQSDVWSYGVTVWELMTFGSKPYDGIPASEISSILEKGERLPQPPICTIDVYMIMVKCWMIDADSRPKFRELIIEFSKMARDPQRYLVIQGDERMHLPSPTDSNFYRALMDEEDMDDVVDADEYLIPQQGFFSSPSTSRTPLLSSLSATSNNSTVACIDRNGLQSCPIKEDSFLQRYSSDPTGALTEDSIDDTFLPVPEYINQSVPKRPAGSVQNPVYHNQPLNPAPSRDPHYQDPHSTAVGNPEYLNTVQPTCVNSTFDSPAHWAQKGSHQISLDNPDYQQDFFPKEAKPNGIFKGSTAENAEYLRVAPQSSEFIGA

SMILES: COc1cc(N(C)CCN(C)C)c(NC(C)C)cc1Nc1ncc(Cl)c(Nc2ccccc2N(C)S(C)(=O)=O)n1 [Example 1, N-(2-((5-chloro-2-((4-((2-(dimethylamino)ethyl)(methyl)amino)-5-(isopropylamino)-2-methoxyphenyl)amino)pyrimidin-4-yl)amino)phenyl)-N-methylmethanesulfonamide]
- GI50: 300 to 1000 nM

SMILES: COc1cc(N(C)CCN(C)C)c(NC(C)C)cc1Nc1nc(Nc2ccccc2N(C)S(C)(=O)=O)c2sccc2n1 [Example 2, N-(2-((2-((4-((2-(dimethylamino)ethyl)(methyl)amino)-5-(isopropylamino)-2-methoxyphenyl)amino)thieno[3,2-d]pyrimidin-4-yl)amino)phenyl)-N-methylmethanesulfonamide]
- GI50: 300 to 1000 nM

SMILES: COc1cc(N2CCC(N(C)C)CC2)c(NC(C)C)cc1Nc1nc(Nc2ccccc2N(C)S(C)(=O)=O)c2sccc2n1 [Example 3, N-(2-((2-((4-(4-(dimethylamino)piperidin-1-yl)-5-(isopropylamino)-2-methoxyphenyl)amino)thieno[3,2-d]pyrimidin-4-yl)amino)phenyl)-N-methylmethanesulfonamide]
- GI50: 300 to 1000 nM

SMILES: COc1cc(N2CCC(N3CCN(C)CC3)CC2)c(NC(C)C)cc1Nc1nc(Nc2ccccc2N(C)S(C)(=O)=O)c2sccc2n1 [Example 4, N-(2-((2-((5-(isopropylamino)-2-methoxy-4-(4-(4-methylpiperazin-1-yl)piperidin-1-yl)phenyl)amino)thieno[3,2-d]pyrimidin-4-yl)amino)phenyl)-N-methylmethanesulfonamide]
- GI50: 300 to 1000 nM

SMILES: COc1cc(N2CCC(N3CCN(C)CC3)CC2)c(NC(C)C)cc1Nc1ncc(Cl)c(Nc2ccccc2N(C)S(C)(=O)=O)n1 [Example 5, N-(2-((5-chloro-2-((5-(isopropylamino)-2-methoxy-4-(4-(4-methylpiperazin-1-yl)piperidin-1-yl)phenyl)amino)pyrimidin-4-yl)amino)phenyl)-N-methylmethanesulfonamide]
- GI50: 300 to 1000 nM

SMILES: COc1cc(N2CCC(N(C)C)CC2)c(NC(C)C)cc1Nc1ncc(Cl)c(Nc2ccccc2N(C)S(C)(=O)=O)n1 [Example 6, N-(2-((5-chloro-2-((4-(4-(dimethylamino)piperidin-1-yl)-5-(isopropylamino)-2-methoxyphenyl)amino)pyrimidin-4-yl)amino)phenyl)-N-methylmethanesulfonamide]
- GI50: 300 to 1000 nM

SMILES: C=CC(=O)Nc1cc(Nc2nc(Nc3ccccc3N(C)S(C)(=O)=O)c3sccc3n2)c(OC)cc1N1CCC(N2CCN(C)CC2)CC1 [Example 7, N-(4-methoxy-5-((4-((2-(N-methylmethylsulfonamido)phenyl)amino)thieno[3,2-d]pyrimidin-2-yl)amino)-2-(4-(4-methylpiperazin-1-yl)piperidin-1-yl)phenyl)acrylamide]
- GI50: 100 to 300 nM

SMILES: C=CC(=O)Nc1cc(Nc2nc(Nc3ccccc3N(C)S(C)(=O)=O)c3sccc3n2)c(OC)cc1N(C)CCN(C)C [Example 8, N-(2-((2-(dimethylamino)ethyl)(methyl)amino)-4-methoxy-5-((4-((2-(N-methylmethylsulfon amido)phenyl)amino)thieno[3,2-d]pyrimidin-2-yl)amino)phenyl)acrylamide]
- GI50: 100 to 300 nM

SMILES: C=CC(=O)Nc1cc(Nc2nc(Nc3ccccc3N(C)S(C)(=O)=O)c3sccc3n2)c(OC)cc1N1CCC(N(C)C)CC1 [Example 9, N-(2-(4-(dimethylamino)piperidin-1-yl)-4-methoxy-5-((4-((2-(N-methylmethylsulfonamido)phenyl)amino)thieno[3,2-d]pyrimidin-2-yl)amino)phenyl)acrylamide]
- GI50: 100 to 300 nM

SMILES: C=CC(=O)Nc1cc(Nc2ncc(Cl)c(Nc3ccccc3NS(C)(=O)=O)n2)c(OC)cc1N(C)CCN(C)C [Example 10, N-(5-((5-chloro-4-((2-(methylsulfonamido)phenyl)amino)pyrimidin-2-yl)amino)-2-((2-(dimethylamino)ethyl)(methyl)amino)-4-methoxyphenyl)acrylamide]
- GI50: < 100 nM

SMILES: C=CC(=O)Nc1cc(Nc2ncc(Cl)c(Nc3ccc4nccnc4c3N(C)S(C)(=O)=O)n2)c(OC)cc1N(C)CCN(C)C [Example 11, N-(5-((5-chloro-4-((5-(N-methylmethylsulfonamido)quinoxalin-6-yl)amino)pyrimidin-2-yl)amino)-2-((2-(dimethylamino)ethyl)(methyl)amino)-4-methoxyphenyl)acrylamide]
- GI50: < 100 nM

SMILES: C=CC(=O)Nc1cc(Nc2ncc(Cl)c(Nc3ccc4nccnc4c3NS(C)(=O)=O)n2)c(OC)cc1N(C)CCN(C)C [Example 12, N-(5-((5-chloro-4-((5-(methylsulfonamido)quinoxalin-6-yl)amino)pyrimidin-2-yl)amino)-2-((2-(dimethylamino)ethyl)(methyl)amino)-4-methoxyphenyl)acrylamide]
- GI50: < 100 nM

SMILES: C=CC(=O)Nc1cc(Nc2ncc(Cl)c(Nc3cc(F)ccc3N(C)S(C)(=O)=O)n2)c(OC)cc1N(C)CCN(C)C [Example 13, N-(5-((5-chloro-4-((5-fluoro-2-(N-methylmethylsulfonamido)phenyl)amino)pyrimidin-2-yl)amino)-2-((2-(dimethylamino)ethyl)(methyl)amino)-4-methoxyphenyl)acrylamide]
- GI50: < 100 nM

SMILES: C=CC(=O)Nc1cc(Nc2ncc(Cl)c(Nc3cc(F)ccc3NS(C)(=O)=O)n2)c(OC)cc1N(C)CCN(C)C [Example 14, N-(5-((5-chloro-4-((5-fluoro-2-(methylsulfonamido)phenyl)amino)pyrimidin-2-yl)amino)-2-((2-(dimethylamino)ethyl)(methyl)amino)-4-methoxyphenyl)acrylamide]
- GI50: < 100 nM

SMILES: C=CC(=O)Nc1cc(Nc2ncc(C(=O)OC(C)C)c(Nc3ccccc3N(C)S(C)(=O)=O)n2)c(OC)cc1N(C)CCN(C)C [Example 15, ISOPROPYL 2-((5-acrylamido-4-((2-(dimethylamino)ethyl)(methyl)amino)-2-methoxyphenyl)amino)-4-((2-(N-methylmethylsulfonamido)phenyl)amino)pyrimidine-5-carboxylate]
- GI50: < 100 nM

SMILES: C=CC(=O)Nc1cc(Nc2ncc(C(=O)OC3CC3)c(Nc3ccccc3N(C)S(C)(=O)=O)n2)c(OC)cc1N(C)CCN(C)C [Example 16, CYCLOPROPYL 2-((5-acrylamido-4-((2-(dimethylamino)ethyl)(methyl)amino)-2-methoxyphenyl)amino)-4-((2-(N-methylmethylsulfonamido)phenyl)amino)pyrimidine-5-carboxylate]
- GI50: < 100 nM

SMILES: C=CC(=O)Nc1cc(Nc2cc(Nc3ccccc3N(C)S(C)(=O)=O)ncn2)c(OC)cc1N(C)CCN(C)C [Example 17, N-(2-((2-(dimethylamino)ethyl)(methyl)amino)-4-methoxy-5-((6-((2-(N-methylmethylsulfon amido)phenyl)amino)pyrimidin-4-yl)amino)phenyl)acrylamide]
- GI50: < 100 nM
